Results on eleven compounds are retold here after US6770652B2, “Multiple acting anti-angiogenic and cytotoxic compounds and methods for using the same” (Duquesne University of the Holy Ghost, priority 2001, dated 2004).

One series is described as follows: U251 cytotoxicity. The format is cell-based. The settings on record: human, U251 cells; Table 4; read-out: U251 cytotoxicity Inhibition, apparent IC50.
Series [1] has as its system chorioallantoic membrane (CAM) of 10-day old chicken embryos. As to the kind of experiment: CAM assay (growth factor-induced angiogenesis on chorioallantoic membrane). The format is in vivo. The settings on record: for IC50: Gallus gallus, read-out: CAM angiogenesis Inhibition, apparent IC50. How it is done:
Human VEGF-165 and BFGF (200 ng each) were added to saturation to a microbial testing disk and placed onto the chorioallantoic membrane (CAM) of 10-day old chicken embryos. Eight hours after the growth factor treatment, unknown compounds (100 μg) were added to the same microbial testing disk. Growth factors and embryos were allowed to incubate an additional 40 hours. CAMS were removed, paraformaldehyde (4% in PBS) fixed, placed onto Petri dishes, and digital images taken at 7.5× using a dissecting microscope. A 1×1-cm grid was then added to the digital CAM images and the number of vessels within each grid counted as a measure of vascularity. […] Data were then graphed (FIG. 1) as a percent of growth factor-induced blood vessel amounts.

For another series, the target named is Flk-1 (Homo sapiens, UniProt P35968). As to the kind of experiment: Phospho-Flk1 phosphotyrosine ELISA (cytoblot) on whole U251 glioblastoma cells; Flk1 kinase inhibition. The format is cell-based. A general note: In an ELISA, binding on a coated surface is turned into a signal by an enzyme label.
In a further series the target is Flt-1 (Homo sapiens, UniProt P17948). As to the kind of experiment: Flt-1 kinase inhibition. The format is cell-based. The following applies: Table 4; read-out: Flt-1 kinase Inhibition, apparent IC50.
[2] abbreviates: Table 2, read-out: FIK1 Kinase Inhibition IC50.
The mark [3] stands for this setting: Table 4, U251 cells overexpress Flk1, read-out: Flk-1 kinase Inhibition, apparent IC50.

SMILES strings stand for the structures. Read-outs that look alike come from different tables or passages of the source. Some results are limits rather than exact numbers.

Sequence of Flk-1 (P35968 20-1356): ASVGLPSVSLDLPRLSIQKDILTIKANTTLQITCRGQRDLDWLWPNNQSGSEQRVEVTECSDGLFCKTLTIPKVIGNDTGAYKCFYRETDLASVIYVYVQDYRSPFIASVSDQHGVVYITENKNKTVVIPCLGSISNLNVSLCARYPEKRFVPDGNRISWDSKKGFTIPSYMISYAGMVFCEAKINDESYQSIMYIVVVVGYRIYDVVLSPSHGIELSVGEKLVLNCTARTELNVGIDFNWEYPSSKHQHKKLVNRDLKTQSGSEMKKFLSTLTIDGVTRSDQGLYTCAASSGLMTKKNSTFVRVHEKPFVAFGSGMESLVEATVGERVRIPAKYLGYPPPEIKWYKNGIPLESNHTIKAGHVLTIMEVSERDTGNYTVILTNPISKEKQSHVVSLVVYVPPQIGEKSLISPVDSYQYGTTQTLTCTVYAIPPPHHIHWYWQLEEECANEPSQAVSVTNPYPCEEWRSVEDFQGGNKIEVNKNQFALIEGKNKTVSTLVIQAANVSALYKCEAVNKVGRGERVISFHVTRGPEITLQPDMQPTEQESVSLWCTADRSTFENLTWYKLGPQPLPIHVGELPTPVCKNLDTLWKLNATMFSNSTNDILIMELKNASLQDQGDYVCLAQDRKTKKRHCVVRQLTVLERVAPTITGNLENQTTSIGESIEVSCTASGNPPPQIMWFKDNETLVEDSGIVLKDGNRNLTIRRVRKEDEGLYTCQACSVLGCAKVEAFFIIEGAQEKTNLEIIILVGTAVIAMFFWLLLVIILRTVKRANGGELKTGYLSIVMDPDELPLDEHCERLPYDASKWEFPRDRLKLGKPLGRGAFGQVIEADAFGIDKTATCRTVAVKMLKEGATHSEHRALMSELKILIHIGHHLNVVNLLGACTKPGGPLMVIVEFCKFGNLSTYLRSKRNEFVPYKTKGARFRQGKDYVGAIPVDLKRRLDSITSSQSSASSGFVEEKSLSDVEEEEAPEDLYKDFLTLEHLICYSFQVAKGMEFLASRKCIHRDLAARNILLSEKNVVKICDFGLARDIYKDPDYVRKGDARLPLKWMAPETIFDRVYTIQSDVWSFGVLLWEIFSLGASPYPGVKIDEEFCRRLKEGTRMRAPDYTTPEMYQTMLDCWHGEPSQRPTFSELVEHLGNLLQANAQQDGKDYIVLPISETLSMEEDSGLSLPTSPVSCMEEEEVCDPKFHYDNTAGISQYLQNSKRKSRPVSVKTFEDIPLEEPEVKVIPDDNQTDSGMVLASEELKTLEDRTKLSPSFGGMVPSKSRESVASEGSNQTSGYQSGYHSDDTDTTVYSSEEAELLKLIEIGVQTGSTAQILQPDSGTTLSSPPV
Sequence of Flt-1 (P17948 27-1338, species assumed): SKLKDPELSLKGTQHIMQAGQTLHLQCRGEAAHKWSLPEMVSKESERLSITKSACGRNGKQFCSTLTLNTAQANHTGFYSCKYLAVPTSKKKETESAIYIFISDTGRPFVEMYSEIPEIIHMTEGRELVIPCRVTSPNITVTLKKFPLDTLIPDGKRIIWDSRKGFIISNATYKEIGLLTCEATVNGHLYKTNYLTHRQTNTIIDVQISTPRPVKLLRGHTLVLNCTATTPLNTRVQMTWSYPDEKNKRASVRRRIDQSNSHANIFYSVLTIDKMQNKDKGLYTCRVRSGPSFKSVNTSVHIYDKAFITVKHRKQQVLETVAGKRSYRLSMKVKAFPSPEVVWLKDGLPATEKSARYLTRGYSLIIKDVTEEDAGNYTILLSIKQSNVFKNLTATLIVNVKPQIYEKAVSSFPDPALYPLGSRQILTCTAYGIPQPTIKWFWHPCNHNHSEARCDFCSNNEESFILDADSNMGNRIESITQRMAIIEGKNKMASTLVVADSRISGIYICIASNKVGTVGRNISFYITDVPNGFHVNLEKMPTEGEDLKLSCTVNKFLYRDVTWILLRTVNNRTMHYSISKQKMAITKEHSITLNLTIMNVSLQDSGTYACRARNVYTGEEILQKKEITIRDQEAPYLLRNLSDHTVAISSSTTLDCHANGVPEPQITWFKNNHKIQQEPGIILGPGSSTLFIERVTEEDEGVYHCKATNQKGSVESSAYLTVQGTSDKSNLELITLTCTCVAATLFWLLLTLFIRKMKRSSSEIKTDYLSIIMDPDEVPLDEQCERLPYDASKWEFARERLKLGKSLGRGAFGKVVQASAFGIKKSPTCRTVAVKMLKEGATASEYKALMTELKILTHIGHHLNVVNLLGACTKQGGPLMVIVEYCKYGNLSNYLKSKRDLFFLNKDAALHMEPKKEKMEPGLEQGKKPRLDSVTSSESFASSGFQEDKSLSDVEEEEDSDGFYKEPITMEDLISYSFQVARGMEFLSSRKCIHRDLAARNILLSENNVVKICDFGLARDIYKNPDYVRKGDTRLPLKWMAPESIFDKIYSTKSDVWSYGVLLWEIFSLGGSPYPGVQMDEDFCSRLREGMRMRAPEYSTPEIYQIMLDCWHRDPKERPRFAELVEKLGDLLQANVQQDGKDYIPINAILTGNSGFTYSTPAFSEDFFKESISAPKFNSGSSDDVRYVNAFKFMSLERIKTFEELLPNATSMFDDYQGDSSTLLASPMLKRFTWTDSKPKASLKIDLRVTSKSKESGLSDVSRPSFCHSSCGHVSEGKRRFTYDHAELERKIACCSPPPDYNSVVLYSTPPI
Experimental for Flk-1: Reactions were stopped by the aspiration of media and the addition of phosphate buffered saline (PBS) containing 0.05% triton X-100, protease inhibitor cocktail and phosphatase inhibitor cocktail 2 (Sigma Chemical company) for 10 minutes on ice. Cells were then fixed at 60° C. for 30 minutes and then cold methanol added to the cells for five minutes to further permeabilize them for antibody penetration. Cells were blocked for one hour with 1% bovine serum albumin in PBS, washed twice in PBS, and then anti-phosphotyrosine-HRP conjugate (Oncogene Research) added at 1:250 dilution overnight. The antibody was then removed, the cells washed three times in PBS with 1% BSA and once with PBS, and luminol-peroxide reagent added (Pierce Biochemical) for 5 minutes. […] Data are graphed as a percentage of growth factor (EGF, VEGF) treated controls.

For `Cc1cc(C)c(/C=C2\C(=O)Nc3ccccc32)[nH]1` [SU5416, reference compound], the IC50 in the series “U251 cytotoxicity” was 0.2 µM; in series [1] it was less than 0.1 µM.

Regarding `Nc1nc(Nc2cccc(Br)c2)c2cc(Cc3ccccc3Cl)[nH]c2n1` [YJ/AG 145], the half-maximal inhibitory concentration (IC50) in series [1] amounted to 1.7 µM. As to `Nc1nc(Nc2cccc(Br)c2)c2cc(Cc3ccc4ccccc4c3)[nH]c2n1` [YJ/AG 146], the half-inhibitory concentration (IC50) is greater than 50 µM on Flk-1 (setting [2]), greater than 50 µM at Flk-1 (setting [3]) and 8.9 µM in series [1]. As for `Nc1nc(Nc2cccc(Br)c2)c2cc(Cc3ccc(Cl)c(Cl)c3)[nH]c2n1` [YJ/AG 148], the concentration for half-maximal inhibition (IC50) in series [1] was less than 0.1 µM. In series [1] (Table 4, remark under the CAM value), the “Toxicity remark in CAM angiogenesis column” value is on record as “(toxic)”. As to `Nc1nc(Nc2cccc(Br)c2)c2cc(Cc3ccc(-c4ccccc4)cc3)[nH]c2n1` [YJ/AG 154], in series [1], the IC50 was less than 0.1 µM. For the compound `Nc1nc(Nc2cccc(Br)c2)c2cc(Cc3ccccc3)[nH]c2n1` [YJ/AG 156], the IC50 in “U251 cytotoxicity” is 3.4 µM; in series [1], less than 0.1 µM. For the compound `Nc1nc(Nc2cccc(Br)c2)c2cc(Cc3cccc4ccccc34)[nH]c2n1` [YJ/AG 158], the IC50 in series [1] was less than 0.1 µM.

On to `Cc1ccccc1Cc1cc2c(Nc3cccc(Br)c3)nc(N)nc2[nH]1` [YJ/AG 168], for which the IC50 was 5 µM in the series “U251 cytotoxicity”, 0.3 µM at Flk-1 (setting [2]), greater than 50 µM on Flt-1 and 1.2 µM in series [1]. In the case of `Nc1nc(Nc2cccc(Br)c2)c2cc(Cc3ccc(Cl)cc3Cl)[nH]c2n1` [YJ/AG 176], the IC50 in series [1] was determined as 10.8 µM. The same measure, in the same setting: next, `COc1cc(Cc2cc3c(Nc4cccc(Br)c4)nc(N)nc3[nH]2)cc(OC)c1OC` [YJ/AG 177]: 0.4 µM. As for `COc1ccc(OC)c(Cc2cc3c(Nc4cccc(Br)c4)nc(N)nc3[nH]2)c1` [YJ/AG 178], the IC50 was 0.6 µM at Flk-1 (setting [2]), 0.6 µM at Flk-1 (setting [3]) and 1.3 µM in series [1].

For orientation: IC50 means the concentration needed to halve the response being measured.
